Measurements as given in patent publication US9512111B2, “N-sulfonylated tetrahydroquinolines and related bicyclic compounds for inhibition of RORγ activity and the treatment of disease” (Lycera Corporation, priority 2010, dated 2016).
Like-named read-outs stand apart in the source and are kept apart here.

Tests used:
RORγt = target: T1, RORγt (Homo sapiens, UniProt P51449); experiment: RORγ Reporter Assay (GAL4-UAS luciferase reporter in HEK293 cells); type: cell-based
T1 construct: The resulting GAL4-RORγt-LBD fusion construct was placed under the control of a constitutive cytomegalovirus (CMV) promoter; expressed in transfected cells; host or cells: HEK293
T1 sequence (P51449 269-508 limits assumed): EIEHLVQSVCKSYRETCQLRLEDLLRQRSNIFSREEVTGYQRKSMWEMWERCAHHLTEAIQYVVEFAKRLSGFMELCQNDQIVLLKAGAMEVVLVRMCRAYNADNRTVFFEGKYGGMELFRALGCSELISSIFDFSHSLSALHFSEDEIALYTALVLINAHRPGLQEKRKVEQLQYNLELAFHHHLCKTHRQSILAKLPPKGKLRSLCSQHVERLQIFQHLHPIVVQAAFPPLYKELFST
Experimental: Inhibition of RORγt in cells was determined using a GAL4-UAS reporter system in HEK293 cells employing a luciferase readout. The RORγt DNA binding domain (DBD) was replaced with the heterologous yeast GAL4 DBD using standard recombinant DNA methods. The resulting GAL4-RORγt-LBD fusion construct was placed under the control of a constitutive cytomegalovirus (CMV) promoter by cloning it into the CMV-driven mammalian expression vector pcDNA3.1+− (Promega Corporation, Madison, Wis.).
A transcriptional reporter expression construct was used to monitor GAL4-RORγ activity, which contained five copies of the GAL4 binding site enhancer (UAS) controlling expression of a firefly luciferase reporter. This construct, pGL4.31, is commercially available from Promega Corporation, Madison Wis. Both expression constructs were transfected in bulk into HEK-293 cells using standard lipid-based transfection techniques, which allowed the GAL4 RORγ-LBD fusion protein to drive expression of the luciferase reporter. Control transfections were performed with an empty pCDN3.1+ vector.
The next day, cells were plated into 384 well plates, test compound was added, and the plates were incubated overnight. […] Promega firefly assays kits were used to stabilize the luciferase signal, and the intensity of the luciferase signal was measured using an EnVision Multilabel Plate Reader (Perkin Elmer, Waltham, Mass.).
HEK 293 cells are transfected with GAL4-NR construct (CMV:NR-LBD in pcDNA3.1neo) and the pGL4.31 GAL4-luciferase reporter construct (Promega). For a background control, use empty pcDNA3.1neo and pGL4.31. Transfection protocol is for a single T75 flask performed with Minis Trans-It 293 reagent. A 60 μL aliquot of Trans-IT reagent at room temperature is added drop wise to 1.5 mL of Optimem (Invitrogen). The resulting solution is mixed by inversion and incubated for 5-20 minutes at room temperature. This reagent mixture is added to 10 μg of DNA (5 μg of each expression vector used at a concentration of 1 mg/mL). The solution is mixed by inversion and incubated at room temperature for 20 minutes.
While the Trans-IT reagent and DNA are incubating, harvest HEK-293 cells. Remove media from flasks via aspiration and add enough TrypLE Express (stable Trypsin-like reagent, Invitrogen) to cover the bottom of the flask. The mixture is incubated at room temperature until the cells are visibly loose in the flask (approximately 2-5 minutes). Add an equal volume of complete growth media, and then pipette to achieve a single cell suspension. Spin down 1×10^7 cells and re-suspend the cells in 10 mL of complete growth media (DMEM high glucose/10% dialyzed FBS/pen/strep; Invitrogen). The cells and transfection mixture are added to one T75 flask. The contents of the T75 flax are mixed and incubated overnight at 37° C. and 5% CO2.
After 16-24 hours, cells are harvested and plated for test compound screening. Cells may be harvested as described above. Next, cells are counted and an appropriate number of cells are spun down. Then, cells are aspirated and re-suspended in complete growth media at a concentration of 0.5×10^6 cells/mL to provide a cell suspension. Plate 20 μL of the cell suspension into a white, tissue-culture treated 384 well plate. (10,000 cells/well).
A 10 mM stock solution of test compound in dimethylsulfoxide (DMSO) was diluted to 500× the final test concentration in DMSO, then diluted to 5× the final test concentration with complete growth medium to provide the Test Compound Solution. The concentration of DMSO in the Test Compound Solution was […]. A 5 μL aliquot of Test Compound Solution was added to each test well in the 384 well plate previously plated with the cell suspension. Next, plates are spun briefly and incubated overnight at 37° C. and 5% CO2.
After 16-24 hours, the luciferase assay is performed. Plates and luciferase reagent (e.g. One-Glo® or Dual Glo®; Promega, Madison, Wis.) are brought to room temperature.

RORγ-LBD = target: T2, RORγ-LBD (Homo sapiens, UniProt P51449); experiment: RORγ-Ligand Binding Domain TR-FRET Assay; type: biochemical
T2 construct: HIS-tagged RORγ-LBD was recombinantly expressed in SF9 cells; made in house; host or cells: SF9 cells (baculovirus); unpurified lysate
T2 sequence (P51449 269-508 limits assumed): T1 sequence (P51449 269-508 limits assumed)
Summary of the method: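 Unpurified His-tagged LBD in Sf9 lysate (~10 nM final) in 25 mM HEPES pH 7.0, 100 mM NaCl, 0.01% Tween, 0.1% BSA, with biotinylated SRC1-2 LXXLL peptide (450 nM), Eu anti-His (2 nM) and streptavidin-APC (60 nM). Incubated 4 h to overnight; IC50 from 665/615 nm TR-FRET ratio.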

[1] = benzoxazines, Table 9, HEK cells
[2] = Table 7, tetrahydroquinolines, HEK293 cells, read-out: RORγ HEK IC50

Structure (SMILES) | IC50 (RORγ-LBD; Table 8, indazoles) | also measured
O=C(Nc1c(Cl)cccc1Cl)c1ccc2c(c1)N(S(=O)(=O)c1ccc(F)cc1)CCO2 [VI-126] |  | IC50 (RORγt; [1]): < 15 µM
O=C(Nc1ccc2c(c1)N(S(=O)(=O)c1ccc(Cl)cc1)CCC2)c1c(F)cccc1Cl [Compound 5, 2-Chloro-N-[1-(4-chlorobenzenesulfonyl)-1,2,3,4-tetrahydroquinolin-7-yl]-6-fluorobenzamide] |  | IC50 (RORγt; [2]): < 15 µM
Cc1cc2c(cc1NC(=O)c1c(F)cccc1Cl)N(S(=O)(=O)c1ccc(F)cc1)CCC2 [Compound 6, 2-Chloro-6-fluoro-N-[1-(4-fluorobenzenesulfonyl)-6-methyl-1,2,3,4-tetrahydroquinolin-7-yl]benzamide] |  | IC50 (RORγt; [2]): < 15 µM
O=C(Nc1ccc2cnn(S(=O)(=O)c3c(F)cccc3F)c2c1)c1c(F)cccc1Cl [Compound V-128] | < 15 µM | 
O=C(Nc1ccc2cnn(S(=O)(=O)c3ccccc3OC(F)(F)F)c2c1)c1c(F)cccc1Cl [Compound V-130] | < 15 µM | 
NCC1CN(S(=O)(=O)c2ccc(F)cc2)c2cc(NC(=O)c3c(F)cccc3Cl)ccc2O1 (stereo not drawn) [VI-31] |  | IC50 (RORγ-LBD; benzoxazines, Table 9): < 15 µM
Cc1ncc(CC(=O)Nc2ccc3cnn(S(=O)(=O)c4cccc(C(C)(C)C)c4)c3c2)s1 [Compound V-2] | < 15 µM | 
O=C(Cc1ccc(Cl)cc1)Nc1ccc2c(c1)N(S(=O)(=O)c1ccc(F)cc1)C[C@H](CO)O2 [VI-77] |  | IC50 (RORγ-LBD; benzoxazines, Table 9): < 15 µM
Cc1cccc(S(=O)(=O)n2nc(-c3ccc(C(=O)O)cc3)c3ccc(NC(=O)c4c(F)cccc4Cl)cc32)c1 [Compound V-10] | < 15 µM | 
O=C(Nc1ccccc1Cl)c1ccc2c(c1)N(S(=O)(=O)c1ccc(F)cc1)CCO2 [VI-128] |  | IC50 (RORγt; [1]): < 15 µM
O=C(Nc1ccc2cnn(S(=O)(=O)c3ccc(F)c(C(F)(F)F)c3)c2c1)c1c(Cl)cccc1Cl [Compound V-66] | < 15 µM | 
O=C(Nc1c(F)cccc1Cl)c1ccc2c(c1)N(S(=O)(=O)c1ccc(F)cc1)CCO2 [VI-127] |  | IC50 (RORγt; [1]): < 15 µM
O=C(Nc1ccc2cnn(S(=O)(=O)c3cccc(Cl)c3)c2c1)c1c(Cl)cccc1C(F)(F)F [Compound V-39] | < 15 µM | 
CC(C)(C)c1cccc(S(=O)(=O)n2ncc3ccc(NC(=O)c4c(F)cccc4F)cc32)c1 [Compound V-57] | < 15 µM | 
O=C(Nc1ccc2cnn(S(=O)(=O)c3ccccc3)c2c1)c1c(F)cccc1Cl [Compound V-159] | < 15 µM | 
Cc1c(F)cccc1S(=O)(=O)n1ncc2ccc(NC(=O)c3c(F)cccc3Cl)cc21 [Compound V-102] | < 15 µM | 
C[C@H]1CN(S(=O)(=O)c2ccc(F)cc2)c2cc(NC(=O)C3(c4ccc(Cl)cc4)CC3)ccc2O1 [VI-131] |  | IC50 (RORγ-LBD; benzoxazines, Table 9): < 15 µM
Cc1ccc(S(=O)(=O)n2ncc3ccc(NC(=O)c4c(F)cccc4Cl)cc32)cc1Cl [Compound V-127] | < 15 µM | 
O=C(Nc1ccc2cnn(S(=O)(=O)c3ccc(I)cc3)c2c1)c1c(F)cccc1Cl [Compound V-131] | < 15 µM | 
CC(=O)c1cccc(S(=O)(=O)n2ncc3ccc(NC(=O)Cc4ccc(F)c(F)c4)cc32)c1 [Compound V-19] | < 15 µM | 
O=C(Cc1ccc(F)cc1)Nc1ccc2c(c1)N(S(=O)(=O)c1ccc(Cl)cc1)C[C@H](CO)O2 [VI-68] |  | IC50 (RORγ-LBD; benzoxazines, Table 9): < 15 µM
CC(=O)c1cccc(S(=O)(=O)n2ncc3ccc(NC(=O)c4c(F)cccc4F)cc32)c1 [Compound V-59] | < 15 µM | 
O=C(Nc1ccc2cnn(S(=O)(=O)c3ccccc3Br)c2c1)c1c(F)cccc1Cl [Compound V-84] | < 15 µM | 

Structure (SMILES) | IC50 (RORγ-LBD; Table 8, indazoles) | also measured
CC(C)(C)c1cccc(S(=O)(=O)n2ncc3ccc(NC(=O)c4c(F)cccc4Cl)cc32)c1 [Compound V-106] | < 15 µM | 
O=C(Nc1ccc2cnn(S(=O)(=O)Cc3cc(Cl)cc(Cl)c3)c2c1)c1c(F)cccc1Cl [Compound V-138] | < 15 µM | 
O=C(Nc1ccc2cnn(S(=O)(=O)c3ccc(F)cc3Cl)c2c1)c1c(F)cccc1Cl [Compound V-166] | < 15 µM | 
CC(=O)c1cccc(S(=O)(=O)n2ncc3ccc(NC(=O)Cc4cnc(C)s4)cc32)c1 [Compound V-4] | < 15 µM | 
CCc1ccc(S(=O)(=O)n2ncc3ccc(NC(=O)c4c(F)cccc4Cl)cc32)cc1 [Compound V-116] | < 15 µM | 
O=C(Nc1ccc2cnn(S(=O)(=O)C3CC3c3ccccc3)c2c1)c1c(F)cccc1Cl (stereo not drawn) [Compound V-105] | < 15 µM | 
C[C@H]1CN(S(=O)(=O)c2cccc(C#N)c2)c2cc(NC(=O)c3c(Cl)cccc3Cl)ccc2O1 [VI-3] |  | IC50 (RORγ-LBD; benzoxazines, Table 9): < 15 µM
O=C(Nc1ccc2cnn(S(=O)(=O)c3ccc(F)cc3F)c2c1)c1c(F)cccc1Cl [Compound V-168] | < 15 µM | 
O=C(Nc1ccc2cnn(S(=O)(=O)c3cc(Cl)cc(Cl)c3)c2c1)c1c(F)cccc1Cl [Compound V-126] | < 15 µM | 
N#Cc1cccc(S(=O)(=O)N2C[C@@H](CO)Oc3ccc(NC(=O)c4c(F)cccc4C(F)(F)F)cc32)c1 [VI-57] |  | IC50 (RORγ-LBD; benzoxazines, Table 9): < 15 µM
O=C(Nc1ccc2cnn(S(=O)(=O)c3cccc(OC(F)F)c3)c2c1)c1c(F)cccc1F [Compound V-58] | < 15 µM | 
C[C@@H](O)[C@H]1CN(S(=O)(=O)c2ccc(F)cc2)c2cc(NC(=O)c3c(Cl)cccc3C(F)(F)F)ccc2O1 [VI-22] |  | IC50 (RORγ-LBD; benzoxazines, Table 9): < 15 µM
CNC(=O)Nc1ccc(S(=O)(=O)n2ncc3ccc(NC(=O)c4c(F)cccc4Cl)cc32)cc1 [Compound V-135] | < 15 µM | 
Cc1nn(C(F)F)cc1S(=O)(=O)n1ncc2ccc(NC(=O)c3c(F)cccc3Cl)cc21 [Compound V-104] | < 15 µM | 
CC(C)(C)c1cccc(S(=O)(=O)n2ncc3ccc(NC(=O)Cc4ccc(F)cc4)cc32)c1 [Compound V-23] | < 15 µM | 
O=C(Nc1ccc2c(c1)N(S(=O)(=O)c1ccc(F)cc1)CCO2)c1c(F)cccc1Cl [Compound 17, 2-Chloro-6-fluoro-N-(4-((4-fluorophenyl)sulfonyl)-3,4-dihydro-2H-benzo[b][1,4]oxazin-6-yl)benzamide] |  | IC50 (RORγ-LBD; benzoxazines, Table 9): > 15 µM
O=C(Nc1ccc2cnn(S(=O)(=O)c3ccccc3C(F)(F)F)c2c1)c1c(F)cccc1Cl [Compound V-132] | < 15 µM | 
O=C(Cc1ccc(Cl)cc1)Nc1ccc2cnn(S(=O)(=O)c3cccc(OC(F)F)c3)c2c1 [Compound V-29] | < 15 µM | 
O=C(Nc1ccc2cnn(S(=O)(=O)c3ccc(C(F)(F)F)cc3)c2c1)c1c(F)cccc1Cl [Compound V-88] | < 15 µM | 
O=C(Nc1ccc2cnn(S(=O)(=O)c3cccc(C(F)(F)F)c3)c2c1)c1c(Cl)cccc1Cl [Compound V-75] | < 15 µM | 
O=C(Cc1ccc(Cl)cc1)Nc1ccc2c(c1)N(S(=O)(=O)c1ccc(Cl)cc1)C[C@@H](CO)O2 [VI-50] |  | IC50 (RORγ-LBD; benzoxazines, Table 9): < 15 µM
O=C(Nc1ccc2c(c1)N(S(=O)(=O)c1ccc(F)cc1)CC(C(F)(F)F)O2)c1c(F)cccc1Cl (stereo not drawn) [VI-117] |  | IC50 (RORγ-LBD; benzoxazines, Table 9): < 15 µM
